Laboratory results taken from PubChem BioAssay (NCI).
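Each compound was tested at five concentrations against cells in 96-well plates for 48 hours. Abbreviation: GI50, concentration required for 50% inhibition of growth. TGI denotes the concentration required for complete inhibition of growth.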

How the values were obtained:
Assay in all cases: inhibition of tumour cell growth, NCI panel, 48 h
SN12C renal = test system: SN12C renal
K-562 leukemia = test system: K-562 leukemia
HCC-2998 colon = test system: HCC-2998 colon
SW-620 colon = test system: SW-620 colon
TK-10 renal = test system: TK-10 renal
MCF7 breast = test system: MCF7 breast
HS 578T breast = test system: HS 578T breast
SF-539 CNS = test system: SF-539 CNS
SK-MEL-28 melanoma = test system: SK-MEL-28 melanoma
HT29 colon = test system: HT29 colon

| Compound | GI50 (SN12C renal) | TGI (SN12C renal) | GI50 (K-562 leukemia) | TGI (K-562 leukemia) | GI50 (HCC-2998 colon) | TGI (HCC-2998 colon) | GI50 (SW-620 colon) | TGI (SW-620 colon) | GI50 (TK-10 renal) | TGI (TK-10 renal) | GI50 (MCF7 breast) | TGI (MCF7 breast) | GI50 (HS 578T breast) | TGI (HS 578T breast) | GI50 (SF-539 CNS) | TGI (SF-539 CNS) | GI50 (SK-MEL-28 melanoma) | TGI (SK-MEL-28 melanoma) | GI50 (HT29 colon) | TGI (HT29 colon) |
| --- | --- | --- | --- | --- | --- | --- | --- | --- | --- | --- | --- | --- | --- | --- | --- | --- | --- | --- | --- | --- |
| COC(=O)c1c2c(c(C)[n+]([O-])c1C)C(=O)C=C(NCc1ccc(F)cc1)C2=O | 0.345 µM | 1.41 µM | 0.251 µM | 5.04 µM | 0.442 µM | 1.77 µM | 0.344 µM | 1.38 µM | 3.3 µM | 9.55 µM | 0.276 µM | 1.04 µM | 1.93 µM | 6.66 µM | 0.641 µM | 1.87 µM | 1.1 µM | 3.37 µM | 0.369 µM | – |
| COC(=O)c1ccc2c(c1)C(=O)c1c-2n(CCCN=[N+]=[N-])c(=O)c2cc(OC)c(OC)cc12 | > 100 µM | > 100 µM | > 100 µM | > 100 µM | > 100 µM | > 100 µM | > 100 µM | > 100 µM | > 100 µM | > 100 µM | > 100 µM | > 100 µM | > 100 µM | > 100 µM | > 100 µM | > 100 µM | > 100 µM | > 100 µM | > 100 µM | > 100 µM |
| O=C(/C=C/c1ccc[nH]1)c1ccc(-n2ccc(C(F)(F)F)n2)cc1 | 10.1 µM | > 100 µM | 38.6 µM | > 100 µM | > 100 µM | > 100 µM | > 100 µM | > 100 µM | > 100 µM | > 100 µM | > 82.2 µM | > 100 µM | > 100 µM | > 100 µM | 2.53 µM | > 100 µM | > 100 µM | > 100 µM | > 100 µM | > 100 µM |
| CNCCOC(=O)/C=C1\CC[C@H]2[C@@H]([C@@H](O)C(=O)[C@@H]3[C@]2(C)CC[C@H](O)[C@]3(C)C(=O)OC)[C@H]1C | 0.327 µM | 1.64 µM | 0.412 µM | 2.37 µM | 1.35 µM | 3.63 µM | 0.318 µM | 1.14 µM | 0.262 µM | 0.76 µM | 0.368 µM | 1.7 µM | 0.281 µM | 2.06 µM | 0.267 µM | 0.701 µM | 1.06 µM | 2.61 µM | 0.443 µM | 1.58 µM |
| O=c1c(F)cn(Cc2ccc(C34CC5CC(CC(C5)C3)C4)c(O)c2)c(=O)n1Cc1ccc(C23CC4CC(CC(C4)C2)C3)c(O)c1 | 10.5 µM | 22.3 µM | 5.29 µM | > 100 µM | 17.8 µM | 33.2 µM | 10.7 µM | 26.4 µM | 15.7 µM | 30 µM | 9.83 µM | 30.6 µM | 11.5 µM | 56.4 µM | 11.5 µM | 24.4 µM | 17.7 µM | 32.3 µM | 13.9 µM | 29.9 µM |
| CC(=O)Nc1ccc(-c2csc(Nc3cccc(-c4csc(C)n4)c3)n2)cc1 | 1.36 µM | 6.78 µM | 0.385 µM | 9.55 µM | 0.00657 µM | 8.98 µM | 3.51 µM | 49 µM | 6.03 µM | > 50 µM | 0.68 µM | > 50 µM | 3.83 µM | > 30.4 µM | 1.1 µM | 6.83 µM | 7.32 µM | > 37.3 µM | 2.38 µM | > 50 µM |
| CCOC(=O)Nc1cc2c(c(N)n1)N=C(c1ccccc1)CO2 | 0.84 µM | 31.1 µM | 0.0336 µM | 34 µM | 0.414 µM | 8.96 µM | 0.0496 µM | 98.2 µM | 0.704 µM | 19.3 µM | 0.1 µM | 21 µM | 0.388 µM | > 69.4 µM | 0.195 µM | 0.789 µM | 15.6 µM | 77.7 µM | 0.047 µM | 10.9 µM |
| C[C@@H]1C[C@@H]([C@@H](CC2CC(=O)NC(=O)C2)OC(=O)CC(=O)c2ccccc2)C(=O)[C@@H](C)C1 | 0.15 µM | > 39.3 µM | 0.682 µM | > 100 µM | 0.373 µM | > 26.5 µM | 0.512 µM | > 43.1 µM | 0.306 µM | > 24.3 µM | 0.645 µM | > 100 µM | 0.604 µM | 10.9 µM | 0.521 µM | 16.6 µM | 0.752 µM | > 29.6 µM | 0.634 µM | > 100 µM |
| N#C/C(=C\c1ccc2ccccc2c1)C(=O)c1ccccc1 | – | > 87.2 µM | – | 99.2 µM | – | > 100 µM | – | > 81.4 µM | – | > 100 µM | – | > 100 µM | – | 77.6 µM | – | > 100 µM | – | > 100 µM | – | > 100 µM |
